Data from publication PMC7582516, “A Novel Series of [1,2,4]Triazolo[4,3-a]Pyridine Sulfonamides as Potential Antimalarial Agents: In Silico Studies, Synthesis and In Vitro Evaluation” (Molecules, 2020).
Values after ≈ are worked out from the molar mass of the structure shown.

Assays:
MRC-5 SV2 cells = assay: Cytotoxicity assay (resazurin); type: cell-based; settings: Homo sapiens, MRC-5 fibroblast cytotoxicity, 72 h
Description: Stock solutions were prepared in 100% DMSO at 20 mg/mL just prior to screening. […] Reference drugs were either obtained from the fine chemical supplier Sigma or from WHO-TDR. The integrated panel of microbial screens and standard screening methodologies was adopted as previously described. All assays were performed in triplicate at the Laboratory of Microbiology, Parasitology and Hygiene at the University of Antwerp, Belgium. […] The selectivity antiprotozoal potential was assessed by simultaneous evaluation of cytotoxicity on a fibroblast (MRC-5) cell line. […] Cell viability was assessed fluorimetrically after 4 h of addition of resazurin. Fluorescence was measured (excitation 550 nm, emission 590 nm) and the results were expressed as % reduction in cell viability compared to control.

[1] = Solubility in DMSO/Water (practical data); type: physicochemical

SMILES | IC50 (MRC-5 SV2 cells) [mg/L] | melting point | Solubility [1]
O=S(=O)(c1cccn2cnnc12)N(Cc1cccc(Cl)c1)c1cc(F)cc(F)c1 [Compound 8a, N-(3-chlorobenzyl)-N-(3,5-difluorophenyl)-[1,2,4]triazolo[4,3-a]pyridine-8-sulfonamide] | > 64 | 160 to 162 °C | –
Cc1cc(C)cc(N(Cc2cc(C)ccc2C)S(=O)(=O)c2cccn3c(C)nnc23)c1 [Compound 8b, N-(2,5-dimethylbenzyl)-N-(3,5-dimethylphenyl)-3-methyl-[1,2,4]triazolo[4,3-a]pyridine-8-sulfonamide] | 48.5 (≈ 112 µM) | – | –
COc1ccc(CN(c2cc(C)cc(C)c2)S(=O)(=O)c2cccn3c(C)nnc23)cc1 [Compound 8c, N-(3,5-dimethylphenyl)-N-(4-methoxybenzyl)-3-methyl-[1,2,4]triazolo[4,3-a]pyridine-8-sulfonamide] | > 64 | – | –
COC(=O)c1ccc(CN(c2cccc(C)c2)S(=O)(=O)c2ccc3nnc(C)n3c2)o1 [Compound 8d, Methyl 5-{[3-methyl-N-(3-methylphenyl)-[1,2,4]triazolo[4,3-a]pyridine-6-sulfonamido]methyl}furan-2-carboxylate] | > 64 | 152 to 154 °C | –
CCc1nnc2ccc(S(=O)(=O)N(Cc3cccc(F)c3)c3ccc(OC)cc3)cn12 [Compound 8e, 3-Ethyl-N-(3-fluorobenzyl)-N-(4-methoxyphenyl)-[1,2,4]triazolo[4,3-a]pyridine-6-sulfonamide] | 18.2 (≈ 41.3 µM) | – | moderately soluble
Cc1cccc(CN(c2ccc(F)cc2)S(=O)(=O)c2ccc3nnc(C)n3c2)c1 [Compound 8f, N-(4-fluorophenyl)-3-methyl-N-(3-methylbenzyl)-[1,2,4]triazolo[4,3-a]pyridine-6-sulfonamide] | > 64 | 104 to 105 °C | –
Cc1nnc2ccc(S(=O)(=O)N(Cc3cccc(Cl)c3)c3ccc(F)cc3)cn12 [Compound 8g, N-(3-chlorobenzyl)-N-(4-fluorophenyl)-3-methyl-[1,2,4]triazolo[4,3-a]pyridine-6-sulfonamide] | > 64 | 107 to 109 °C | –
Cc1nnc2ccc(S(=O)(=O)N(Cc3ccccc3F)c3cccc(Cl)c3)cn12 [Compound 8h, N-(3-chlorophenyl)-N-(2-fluorobenzyl)-3-methyl-[1,2,4]triazolo[4,3-a]pyridine-6-sulfonamide] | > 64 | – | –
Cc1nnc2ccc(S(=O)(=O)N(Cc3ccc(F)cc3)c3ccc(Cl)cc3)cn12 [Compound 8i, N-(4-chlorophenyl)-N-(4-fluorobenzyl)-3-methyl-[1,2,4]triazolo[4,3-a]pyridine-6-sulfonamide] | > 64 | 198 to 199 °C | –
O=c1n(Cc2cccc(Cl)c2)nc2c(S(=O)(=O)N3CCCCC3)cccn12 [Compound 13a, 2-(3-Chlorobenzyl)-8-(piperidin-1-ylsulfonyl)-[1,2,4]triazolo[4,3-a]pyridin-3(2H)-one] | > 64 | – | moderately soluble
O=c1n(Cc2ccc3c(c2)OCO3)nc2c(S(=O)(=O)N3CCCCC3)cccn12 [Compound 13b, 2-(Benzo[d][1,3]dioxol-5-ylmethyl)-8-(piperidin-1-ylsulfonyl)-[1,2,4]triazolo[4,3-a]pyridin-3(2H)-one] | > 64 | 160 to 161 °C | –
O=c1n(Cc2cc(F)cc(F)c2)nc2c(S(=O)(=O)N3CCCCC3)cccn12 [Compound 13c, 2-(3,5-Difluorobenzyl)-8-(piperidin-1-ylsulfonyl)-[1,2,4]triazolo[4,3-a]pyridin-3(2H)-one] | > 64 | 221 to 222 °C | –
O=c1n(Cc2ccccc2Cl)nc2c(S(=O)(=O)N3CCOCC3)cccn12 [Compound 13d, 2-(2-Chlorobenzyl)-8-(morpholinosulfonyl)-[1,2,4]triazolo[4,3-a]pyridin-3(2H)-one] | > 64 | – | –
O=C1CCCN1c1ccc(Cn2nc3c(S(=O)(=O)N4CCOCC4)cccn3c2=O)cc1 [Compound 13e, 8-(Morpholinosulfonyl)-2-[4-(2-oxopyrrolidin-1-yl)benzyl]-[1,2,4]triazolo[4,3-a]pyridin-3(2H)-one] | > 64 | 258 to 260 °C (dec.) | –
O=c1n(Cc2ccc(Cl)cc2)nc2ccc(S(=O)(=O)N3CCCCC3)cn12 [Compound 13f, 2-(4-Chlorobenzyl)-6-(piperidin-1-ylsulfonyl)-[1,2,4]triazolo[4,3-a]pyridin-3(2H)-one] | > 64 | 173 to 174 °C | –
Cc1cccc(Cn2nc3ccc(S(=O)(=O)N4CCC(C)CC4)cn3c2=O)c1 [Compound 13g, 2-(3-Methylbenzyl)-6-(4-methylpiperidin-1-ylsulfonyl)-[1,2,4]triazolo[4,3-a]pyridin-3(2H)-one] | > 64 | 145 to 146 °C | –
CC1CCN(S(=O)(=O)c2ccc3nn(Cc4ccccc4F)c(=O)n3c2)CC1 [Compound 13h, 2-(2-Fluorobenzyl)-6-(4-methylpiperidin-1-ylsulfonyl)-[1,2,4]triazolo[4,3-a]pyridin-3(2H)-one] | > 64 | 150 to 151 °C | –
O=c1n(Cc2cccc(F)c2)nc2ccc(S(=O)(=O)N3CCSCC3)cn12 [Compound 13i, 2-(3-Fluorobenzyl)-6-(thiomorpholinosulfonyl)-[1,2,4]triazolo[4,3-a]pyridin-3(2H)-one] | > 64 | 154 to 155 °C | –
O=c1n(Cc2ccc(F)cc2Cl)nc2ccc(S(=O)(=O)N3CCSCC3)cn12 [Compound 13j, 2-(2-Chloro-4-fluorobenzyl)-6-(thiomorpholinosulfonyl)-[1,2,4]triazolo[4,3-a]pyridin-3(2H)-one] | > 64 | 190 to 191 °C | –
COc1ccc(CSc2nnc3c(S(=O)(=O)N4CCCCC4)cccn23)cc1 [Compound 15a, 3-(4-Methoxybenzylthio)-8-(piperidin-1-ylsulfonyl)-[1,2,4]triazolo[4,3-a]pyridine] | > 64 | 169 to 170 °C | –
O=S(=O)(c1cccn2c(SCc3cccc(Br)c3)nnc12)N1CCCCC1 [Compound 15b, 3-(3-Bromobenzylthio)-8-(piperidin-1-ylsulfonyl)-[1,2,4]triazolo[4,3-a]pyridine] | > 64 | 160 to 162 °C | –
Cc1ccc(CSc2nnc3c(S(=O)(=O)N4CCCCC4)cccn23)cc1 [Compound 15c, 3-(4-Methylbenzylthio)-8-(piperidin-1-ylsulfonyl)-[1,2,4]triazolo[4,3-a]pyridine] | > 64 | 155 to 156 °C | –
O=S(=O)(c1cccn2c(SCc3cccc(Cl)c3)nnc12)N1CCCC1 [Compound 15d, 3-(3-Chlorobenzylthio)-8-(pyrrolidin-1-ylsulfonyl)-[1,2,4]triazolo[4,3-a]pyridine] | > 64 | 143 to 145 °C | –
O=S(=O)(c1cccn2c(SCc3ccccc3Cl)nnc12)N1CCCC1 [Compound 15e, 3-(2-Chlorobenzylthio)-8-(pyrrolidin-1-ylsulfonyl)-[1,2,4]triazolo[4,3-a]pyridine] | > 64 | 164 to 166 °C | –
O=S(=O)(c1cccn2c(SCc3ccc(F)cc3)nnc12)N1CCCc2ccccc21 [Compound 15f, 1-(3-(4-Fluorobenzylthio)-[1,2,4]triazolo[4,3-a]pyridin-8-ylsulfonyl)-1,2,3,4-tetrahydroquinoline] | > 64 | 113 to 115 °C | –
